Measurements: patent US20240255464A1 (priority 2021, published 2024)
“And” between values parts separate entries of the source, which are not always exact repeats. Identical values can stand only once. Like-named read-outs stand apart in the source and are kept apart here.

Tested on: HL-1 cells
Assay type: cell-based
[1] = HL-1 cells, 100 nM nifedipine in Tyrode's solution, 60 s
[2] = HL-1 cells, 100 nM nifedipine in Tyrode's solution, 120 s

| Structure (SMILES) | APD50 [1] [ms] | APD90 [1] [ms] | Amplitude [1] [mV] | Refractory Period [1] [ms] | APD50 [2] [ms] | APD90 [2] [ms] | Amplitude [2] [mV] | Refractory Period [2] [ms] | APD50 | APD90 | Amplitude | Refractory Period | effect on action potential amplitude | effect on action potential duration at 50% or 90% repolarization | effect on repolarization duration | effect on spike amplitude | reversibility of the effect |
| --- | --- | --- | --- | --- | --- | --- | --- | --- | --- | --- | --- | --- | --- | --- | --- | --- | --- |
| COC(=O)C1=C(C)NC(C)=C(C(=O)OC)C1c1ccccc1[N+](=O)[O-] [Nifedipine, nifedipine] | 106.0 | 172.9 | 102.9 | 964.8 | 59.1 | 90.1 | 88.9 | 1022.3 |  |  |  |  |  |  |  |  |  |
| NC1=N[C@H](O)[C@H]2[C@H]3O[C@]4(O)O[C@@H]([C@@H](O)[C@@]2(N1)[C@@H]4O)[C@]3(O)CO [TTX, tetrodotoxin] |  |  |  |  |  |  |  |  | 81.2 ms and 65.5 ms | 166.6 ms and 141.8 ms | 113.4 mV and 91.9 mV | 948.4 ms and 958.6 ms | lowers the amplitude | reduces the action potential duration | shortening the repolarization duration | reducing the spike amplitude | reversible |
